What all share (test): 4-nitrophenol release, absorbance at […] nm, nonlinear regression
Common to all, as to type: biochemical, Pseudomonas sp. (bin 31)
Details in all cases: phosphate-buffered saline pH 7.4; 20°C (methods: room temperature); 0.1-2.4 mM substrate

Assay [1] deals with T1, Ple-tan1.
T1 construct: codon-optimized synthetic gene in pCold II, E. coli Origami (DE3), His-tag purified plus size exclusion

Assay [2] deals with T2, Ple-tan2.
T2 construct: codon-optimized synthetic gene in pCold II, E. coli Origami (DE3), His-tag purified

For assay [3], the system named is T3, Ple-solo.
T3 construct: codon-optimized synthetic gene in pCold II, E. coli Origami (DE3), His-tag purified plus size exclusion

In general, Km refers to the substrate concentration at which the rate is half of its maximum. Regarding `CCCC(=O)Oc1ccc([N+](=O)[O-])cc1` [para-nitrophenyl butyrate], the Km stood at 454 ± 54 µM in assay [1], 1420 ± 94 µM in assay [2] and 254 ± 55 µM in assay [3].

Source of the values: publication PMC10734441, “Comparative biodegradation analysis of three compostable polyesters by a marine microbial community” (Applied and Environmental Microbiology, 2023).
